Measured values reported in patent US6492416B1, “4,5-diaryl-3(2H)-furanone derivatives as cyclooxygenase-2 inhibitors” (Pacific Corporation, priority 1999, dated 2002).
Converted amounts (≈) assume the structure as drawn.

Key:
COX-2 = molecular target: T1, COX-2 (Mus musculus, UniProt Q05769); assay: Evaluation of COX-2 activity: PGE2 formation in aspirin-treated, LPS-stimulated mouse peritoneal macrophages; assay type: cell-based
T1 sequence (Q05769 18-604): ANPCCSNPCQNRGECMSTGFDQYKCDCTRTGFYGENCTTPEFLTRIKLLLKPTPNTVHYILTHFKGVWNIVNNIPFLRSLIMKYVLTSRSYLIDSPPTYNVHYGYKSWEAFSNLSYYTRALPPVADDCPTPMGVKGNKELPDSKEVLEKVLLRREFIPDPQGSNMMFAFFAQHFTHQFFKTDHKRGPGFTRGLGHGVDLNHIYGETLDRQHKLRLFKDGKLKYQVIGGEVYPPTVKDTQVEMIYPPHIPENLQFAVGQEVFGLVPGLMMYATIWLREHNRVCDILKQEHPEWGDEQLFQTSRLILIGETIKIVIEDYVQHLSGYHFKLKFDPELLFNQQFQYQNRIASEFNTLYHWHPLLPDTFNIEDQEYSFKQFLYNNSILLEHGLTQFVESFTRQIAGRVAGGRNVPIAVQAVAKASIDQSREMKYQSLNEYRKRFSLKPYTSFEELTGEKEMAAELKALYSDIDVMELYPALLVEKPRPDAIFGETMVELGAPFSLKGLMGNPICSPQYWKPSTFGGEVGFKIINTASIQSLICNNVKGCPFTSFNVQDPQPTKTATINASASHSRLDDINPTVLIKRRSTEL
Method: (§1) Evaluation of in vitro COX-2 and COX-1 Activity [J. Pharmacol. Exp. Ther. 166, 96 (1969)]
(§2) The abdominal skin of a C57BL/6 mouse was sanitized with 70% aqueous ethanol, and was removed without damaging the peritoneum. 5 ml of cold phosphate buffer solution (PBS) was then injected into the abdominal cavity. After a minute, the peritoneal fluid containing the macrophages was collected using a syringe and a needle. The collected fluid was centrifuged for 5 min at 1500 rpm to afford pellets of cells. The pellets were then dispersed in the RPMI-1640 culture medium containing 100 units/ml penicillin and 100 μg/ml streptomycin.
The pellets dispersed as above were treated with 500 μM aspirin in order to knock out the activity of the COX-1 enzymes in the cells. The suspension was then diluted with the RPMI-1640 medium to contain 1×10^6 cells/ml. 100 μl of the suspension was added to each well of a 96-well ELISA plate. Then the plate was incubated for 2 hrs at 37° C. under 5% CO2 in order to fix the macrophages onto the plate. The cells, which were not fixed onto the plate were removed by washing with PBS two times. […] The RPMI-1640 medium containing 3% fetal bovine serum albumin was added to each well of the plate, which was followed by stimulation with 10 μg/ml lipopolysaccharide (LPS). […] The LPS-treated suspensions were incubated for 16 hours at 37° C. under 5% CO2 to induce COX-2. Then the culture medium was removed and the macrophages were washed two times with PBS. Then 130 μl RPMI-1640 culture medium was added to each well and the macrophage solutions were incubated at 37° C. for 10 minutes, which was followed by the treatment with 10 μM arachidonic acid and an appropriate amount of compounds of this invention. The plate was incubated for another 10 minutes. The upper solution was collected using a micropipette and was subjected to determination of PGE2 amount in the solution. The amount of PGE2 present in the collected solution was determined either by a known radio-immuno assay or by a known enzyme-immunoassay [Methods in Enzymol. 86, 258 (1982); Methods in Enzymol. 187, 24 (1990)]. The extent of COX-2 inhibition by a compound of the present invention was calculated by assuming, that the amount of PGE2 formed with the treatment of 10 μg/ml arachidonic acid was used is the maximum possible amount of PGE2, and that the amount of PGE2 formed without the treatment of arachidonic acid is the minimum possible amount of PGE2.
(§3) In order to determine IC50 for a compound of this invention, enzymatic activities were measured at multiple concentrations of compounds of this invention around IC50 of the compound. Usually enzymatic activities at 4˜5 concentrations were measured to calculate out IC50 for a compound of this invention.

COX-1 = molecular target: T2, COX-1 (Mus musculus, UniProt P22437); assay: Evaluation of COX-1 activity: PGE2 formation in mouse peritoneal macrophages without aspirin and LPS treatment; assay type: cell-based
T2 sequence (P22437 27-602): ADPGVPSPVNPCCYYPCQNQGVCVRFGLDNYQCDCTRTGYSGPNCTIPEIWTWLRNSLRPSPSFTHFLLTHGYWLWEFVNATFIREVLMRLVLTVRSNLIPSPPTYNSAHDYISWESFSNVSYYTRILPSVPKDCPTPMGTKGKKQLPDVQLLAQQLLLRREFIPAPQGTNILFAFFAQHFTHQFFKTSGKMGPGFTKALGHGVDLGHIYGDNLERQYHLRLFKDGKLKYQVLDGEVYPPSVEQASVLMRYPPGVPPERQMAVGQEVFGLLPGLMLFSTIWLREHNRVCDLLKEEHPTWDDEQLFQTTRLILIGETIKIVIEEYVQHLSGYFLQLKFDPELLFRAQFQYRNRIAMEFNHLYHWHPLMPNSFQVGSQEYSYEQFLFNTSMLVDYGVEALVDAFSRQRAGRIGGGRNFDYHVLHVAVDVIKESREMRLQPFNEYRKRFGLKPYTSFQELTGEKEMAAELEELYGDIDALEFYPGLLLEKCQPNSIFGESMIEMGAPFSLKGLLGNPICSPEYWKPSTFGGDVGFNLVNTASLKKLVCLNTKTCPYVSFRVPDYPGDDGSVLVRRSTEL
Method: as §1, §2
The pellets dispersed as above were treated with 500 μM aspirin in order to knock out the activity of the COX-1 enzymes in the cells. The suspension was then diluted with the RPMI-1640 medium to contain 1×10^6 cells/ml. 100 μl of the suspension was added to each well of a 96-well ELISA plate. Then the plate was incubated for 2 hrs at 37° C. under 5% CO2 in order to fix the macrophages onto the plate. The cells, which were not fixed onto the plate were removed by washing with PBS two times. The purity of macrophages obtained thereby was confirmed by differential counting. The RPMI-1640 medium containing 3% fetal bovine serum albumin was added to each well of the plate, which was followed by stimulation with 10 μg/ml lipopolysaccharide (LPS). Usually 5×10^5 cells/ml were present by this preparation. The LPS-treated suspensions were incubated for 16 hours at 37° C. under 5% CO2 to induce COX-2. Then the culture medium was removed and the macrophages were washed two times with PBS. Then 130 μl RPMI-1640 culture medium was added to each well and the macrophage solutions were incubated at 37° C. for 10 minutes, which was followed by the treatment with 10 μM arachidonic acid and an appropriate amount of compounds of this invention. The plate was incubated for another 10 minutes. The upper solution was collected using a micropipette and was subjected to determination of PGE2 amount in the solution. The amount of PGE2 present in the collected solution was determined either by a known radio-immuno assay or by a known enzyme-immunoassay [Methods in Enzymol. 86, 258 (1982); Methods in Enzymol. 187, 24 (1990)]. The extent of COX-2 inhibition by a compound of the present invention was calculated by assuming, that the amount of PGE2 formed with the treatment of 10 μg/ml arachidonic acid was used is the maximum possible amount of PGE2, and that the amount of PGE2 formed without the treatment of arachidonic acid is the minimum possible amount of PGE2.
In the evaluation of COX-1 inhibitory activity by a compound of the present invention, the same procedures employed for evaluation of COX-2 activity were employed, except omitting the following two steps: 1) the treatment with aspirin for knockout of COX-1 activity and 2) treatment with LPS for induction of COX-2.
as §3

| Compound | IC50, μg/ml COX-2 (COX-2) | IC50, μg/ml COX-1 (COX-1) | melting point |
| --- | --- | --- | --- |
| CC1(C)OC(c2ccc(S(C)(=O)=O)cc2F)=C(c2cccc(F)c2)C1=O [Example 323] | 0.03 µg/mL (≈ 0.0793 µM) | 10 µg/mL (≈ 26.4 µM) | 157 to 158 °C |
| CNS(=O)(=O)c1ccc(C2=C(c3ccccc3)C(=O)C(C)(C)O2)cc1Cl [Example 372, 5-{3-Chloro-4-(N-methylaminosulfonyl)phenyl}-2,2-dimethyl-4-phenyl-3(2H)-furanone] | 0.09 µg/mL (≈ 0.23 µM) | 200 µg/mL (≈ 510 µM) | 136 to 137 °C |
| CC1(C)OC(c2ccc(S(C)(=O)=O)c(Br)c2)=C(c2cc(F)cc(F)c2)C1=O [Example 345] | 0.03 µg/mL (≈ 0.0656 µM) | 50 µg/mL (≈ 109 µM) | 194 to 195 °C |
| CC1(C)OC(c2ccc(S(C)(=O)=O)cc2F)=C(c2cc(F)cc(F)c2)C1=O [Example 326] | 0.03 µg/mL (≈ 0.0757 µM) | 20 µg/mL (≈ 50.5 µM) | 118 to 119 °C |
| Cc1ccc(F)cc1C1=C(c2ccc(S(C)(=O)=O)cc2)OC(C)(C)C1=O [Example 94] | 0.05 µg/mL (≈ 0.134 µM) | 5 µg/mL (≈ 13.4 µM) | 159 to 160 °C |
| CC1(C)OC(c2ccc(S(C)(=O)=O)c(Cl)c2)=C(c2cccc(Cl)c2)C1=O [Example 358] | 0.02 µg/mL (≈ 0.0486 µM) | 8 µg/mL (≈ 19.5 µM) | 188 to 189 °C |
| CS(=O)(=O)c1ccc(C2=C(c3cccc(Cl)c3)C(=O)C3(CCOCC3)O2)cc1 [Example 263] | 0.03 µg/mL (≈ 0.0716 µM) | 50 µg/mL (≈ 119 µM) | 96 to 99 °C |
| CC1(C)OC(c2ccc(S(C)(=O)=O)cc2)=C(c2cc(Cl)cc(Cl)c2)C1=O [Example 75] | 0.03 µg/mL (≈ 0.0729 µM) | 3 µg/mL (≈ 7.29 µM) | 187 to 188 °C |
| CC1(C)OC(c2ccc(S(C)(=O)=O)cc2)=C(c2cccc(N)c2)C1=O [Example 66, 4-(3-aminophenyl)-2,2-dimethyl-5-{4-(methylsulfonyl)phenyl}-3(2H)-furanone] | 0.05 µg/mL (≈ 0.14 µM) | 50 µg/mL (≈ 140 µM) | 186 to 187 °C |
| CC1(C)OC(c2ccc(S(C)(=O)=O)c(F)c2)=C(c2ccccc2)C1=O [Example 273] | 0.03 µg/mL (≈ 0.0832 µM) | 20 µg/mL (≈ 55.5 µM) | 190 to 191 °C |
| C[S+]([O-])c1ccc(C2=C(c3cccc(F)c3)C(=O)C(C)(C)O2)cc1F (centres unmarked) [Example 290, 2,2-Dimethyl-5-{3-fluoro-4-(methylsulfinyl)phenyl)-4-(3-fluorophenyl)-3(2H)-furanone] | 0.3 µg/mL (≈ 0.828 µM) | 20 µg/mL (≈ 55.2 µM) |  |
| CSc1ccc(C2=C(c3cccc(Cl)c3)C(=O)C(C)(C)O2)cc1 [Example 168, 4-(3-chlorophenyl)-2,2-dimethyl-5-{4-(methylthio)phenyl}-3(2H)-furanone] | 0.5 µg/mL (≈ 1.45 µM) | 3 µg/mL (≈ 8.7 µM) |  |
| CC1(C)OC(c2ccc(S(N)(=O)=O)c(F)c2)=C(c2ccccc2)C1=O [Example 300, 5-{4(Aminosulfonyl)-3-fluorophenyl}-2,2-dimethyl-4-phenyl-3(2H)-furanone] | 0.03 µg/mL (≈ 0.083 µM) | 20 µg/mL (≈ 55.3 µM) |  |
| CS(=O)(=O)c1ccc(C2=C(c3ccccc3)C(=O)C3(CCCC3)O2)cc1 [Example 53, 2-{(4-Methylsulfonyl)phenyl}-3phenyl-1-oxa-spiro[4,4]non-2-en-4-one] | 0.03 µg/mL (≈ 0.0814 µM) | 5 µg/mL (≈ 13.6 µM) |  |
| COc1ccc(C2=C(c3ccc(S(N)(=O)=O)cc3)OC(C)(C)C2=O)cc1OC [Example 24, 5-{4-(Aminosulfonyl)phenyl}-4-{3,4-(dimethoxy)phenyl}-2,2-dimethyl 3(2H)-furanone] | 0.034 µg/mL (≈ 0.0843 µM) | 6.97 µg/mL (≈ 17.3 µM) |  |
| CC1(C)OC(c2ccc(S(C)(=O)=O)cc2)=C(c2ccco2)C1=O [Example 18, 2,2-Dimethyl-4-(2-furanyl)-5-{4-(methylsulfonyl)phenyl}-3(2H)-furanone] | 0.2 µg/mL (≈ 0.602 µM) | 30 µg/mL (≈ 90.3 µM) |  |
| CCC1(CC)OC(c2ccc(S(C)(=O)=O)cc2)=C(c2ccc(OC)c(F)c2)C1=O [Example 50, 2,2-Diethyl-4-(3-fluoro-4-methoxyphenyl)-5-{4-(methylsulfonyl)phenyl}-3(2H)-furanone] | 0.03 µg/mL (≈ 0.0717 µM) | 20 µg/mL (≈ 47.8 µM) |  |
